Test results as given in patent publication US20060276495A1, “Treatment methods of nasal congestion and nasal obstruction” (Schering Corporation, priority 2001, published 2006).

What was measured:
[1] = test system: seasonal allergic rhinitis patients; assay: four double-blinded, randomized clinical trials in seasonal allergic rhinitis patients; format: in vivo, human
From the text: The clinical efficacy and safety of desloratadine has been documented in over 3,200 seasonal allergic rhinitis patients in four double-blinded, randomized clinical trials.
Efficacy endpoints in all the studies were Total Symptom Score, Total Nasal Symptom Score, Total Non-nasal Symptom Score, and Health Quality of Life (HQOL) analysis in efficacy trials. […] An important efficacy endpoint analyzed in the desloratadine studies is the AM NOW total symptom score. This parameter measures the total symptom relief by the patient after 24 hours before taking the next day dose.

patients with SAR = assay: pooled randomized, parallel-group, double-blind, placebo-controlled studies of nasal congestion/stuffiness in patients with SAR; format: in vivo, human; details: for nasal congestion/stuffiness severity score (0-3), 14-day average change from baseline: baseline score 2.4
Experimental: The effects of desloratadine on nasal congestion/stuffiness are described by using data pooled from randomized, parallel-group, double-blind, placebo-controlled studies of desloratadine in patients with SAR. Patients (12-75 years; pooled n-659-662/group) with a ≧2-year history of seasonal allergic rhinitis and moderate-to-[…] severe symptoms present at the time of enrollment received desloratadine (5 mg or 7.5 mg) or placebo PO once a day for 14 days. The severity (0=none, 1=mild, 2=moderate, 3=severe) of congestion/stuffiness was assessed by patients for the study duration. The 14-day average change in symptom severity score from baseline was assessed. The mean symptom severity score for nasal congestion/stuffiness was 2.4 in each treatment group at baseline, indicating patients had moderate-to-severe nasal congestion before receiving treatment.

## Clc1ccc2c(c1)CCc1cccnc1C2=C1CCNCC1 [Desloratadine, desloratadine]
[1]; 5 mg once daily, adult and adolescent SAR patients
  total symptom scores (sum of individual scores for rhinorrhea, sneezing, congestion/stuffiness, nasal itching, itchy/burning eyes, tearing, ocular redness, itchy ears/palate): significantly reduced
[1]; 5 mg, p<0.01 vs placebo
  reducing nasal symptoms vs placebo: significantly (p<0.01) more effective than placebo
[1]; entire 5 mg to 20 mg dosage range, p<0.05
  AM NOW total symptom score (symptom relief after 24 hours, before next day dose): Statistically significant (p<0.05) reductions were maintained for the full 24 hour dosing interval
Patients with SAR; 5 mg PO once a day for 14 days, P=0.02 vs placebo
  nasal congestion/stuffiness severity score (0-3), 14-day average change from baseline: significantly decreased
Patients with SAR; 5 mg or 7.5 mg PO once a day for 14 days, vs placebo
  total symptom severity: significantly decreased
Patients with SAR; 7.5 mg PO once a day for 14 days, P=0.01 vs placebo
  nasal congestion/stuffiness severity score (0-3), 14-day average change from baseline: significantly decreased
